Experimental data reported in US3956492A, “Pharmaceutical compositions containing a 3-(amino-methylene)-5-phenyl-1,4-benzodiazepin-2-one and method of use” (Boehringer Ingelheim GmbH, priority 1972, dated 1976).
Like-named read-outs stand apart in the source and are kept apart here.

Experiments:
Type in all cases: in vivo
female NMRI-mice = assay: Muscle-relaxing and sedative activity by the method of Young and Lewis (holding ability in slowly rotating inclined wire-mesh cylinders); conditions: Mus musculus, po, 50% of animals fall out of cylinders
Experimental: The muscle-relaxing and sedative activities were tested by the method of Young and Lewis [Science 105, 368 (1947)]on female NMRI-mice of our own breed with a body weight between 20 and 26 gm by means of slowly turning wire-mesh cylinders, inclined at 30° from the vertical (length : 43 cm; diameter : 22 cm; mesh-size of the wire netting : 0.6 cm). After peroral administration of the test compound in the form of a 1% suspension in tylose to groups of 10 mice/dose their holding ability in the slowly rotating cylinders was tested (2 rotations/minute) against a control group. The median effective dose (ED50) was graphically determined which caused 50% of the animals to fall out of the cylinders at various time intervals after administration.

male NMRI-mice = assay: Anticonvulsive activity, protective effect against the maximum electro-shock-spasm; conditions: Mus musculus, po, p.o., 50% protected against tonic extensor component
Experimental: The anticonvulsive activity was tested in terms of the protective effect against the maximum electro-shock-spasm in male NMRI-mice of our own breed with a body weight between 20 and 26 gm analogous to Swinyard, Brown and Goodman [J. Pharmacol. exp. Therap. 106, 319 (1952)]. The animals were exposed to an alternating current of 50 cycles and 50 milliamperes (duration of stimulation 0.2 seconds), where the occurrence of the tonic extensor spasm was valued as positive. After peroral administration of the test compound in the form of a 1% suspension in tylose, the dose (ED50) was graphically determined which protected 50% of the animals against the tonic extensor component of the back extremities after various time intervals.

adult laboratory mice = assay: Standard acute toxicity tests; conditions: group of 10 adult laboratory mice
Experimental: It should be added that the compounds of the formula I are virtually non-toxic. For instance, by standard acute toxicity tests were determined that even massive doses of 6400 mgm/kg p.o. of compound A or 3200 mgm/kg p.o. of compounds B or C produced no deaths in a group of 10 adult laboratory mice within 14 days.

mice = assay: Effect on spontaneous motility (sedative activity); conditions: Mus musculus, po, motility decreased by 50% vs control animals
Text: The sedative activity was further determined on mice in terms of the decreasing effect upon the spontaneous motility. The motility of 8 mice per dose of test compound was compared to the motility of 8 control animals; each group was placed into separate motility-measuring cages (diameter : 25 cm), with 10 photoelectric cells in the floor and a light source above the cage. After peroral administration of the test compound the dose was graphically determined which decreased the motility by 50%, compared to the control animals, at various time intervals after administration.

[1] = after 30-60 min., read-out: ED50 after 30-60 min.
[2] = after 90-120 min., read-out: ED50 after 90-120 min.
[3] = after 210-240 min., read-out: ED50 after 210-240 min.
[4] = after 270-300 min., read-out: ED50 after 270-300 min.
[5] = 0.5 h, after 30 min., read-out: ED50 after 30 min.
[6] = 2.5 h, after 150 min., read-out: ED50 after 150 min.
[7] = 5 h, after 300 min., read-out: ED50 after 300 min.
[8] = after 90-95 min., read-out: ED50 after 90-95 min.
[9] = after 150-155 min., read-out: ED50 after 150-155 min.

Row | Structure (SMILES) | ED50 (female NMRI-mice; [1]) | ED50 (female NMRI-mice; [2]) | ED50 (female NMRI-mice; [3]) | ED50 (female NMRI-mice; [4]) | ED50 (male NMRI-mice; [5]) | ED50 (male NMRI-mice; [6]) | ED50 (male NMRI-mice; [7]) | deaths within 14 days (adult laboratory mice; 6400 mgm/kg p.o.) | deaths within 14 days (adult laboratory mice; 3200 mgm/kg p.o.) | ED50 (mice; [8]) | ED50 (mice; [9])
1 | CN1C(=O)C(=CN2CCOCC2)N=C(c2ccccc2Cl)c2cc(Cl)ccc21 [A, 7-chloro-5-(2'-chloro-phenyl)-1,3-dihydro-1-methyl-3-(morpholino-methylene)-2H-1,4-benzodiazepin-2-one] | 14 mg/kg | 5 mg/kg | 14 mg/kg | 3 mg/kg | 100 mg/kg | 18 mg/kg | 13 mg/kg | no deaths | – | – | –
2 | NC=C1N=C(c2ccccc2Cl)c2cc(Cl)ccc2NC1=O [B, 3-(amino-methylene)-7-chloro-5-(2'-chloro-phenyl)-1,3-dihydro-2H-1,4-benzodiazepin-2-one] | 13 mg/kg | 3 mg/kg | 10 mg/kg | 11 mg/kg | 85 mg/kg | 28 mg/kg | 43 mg/kg | – | no deaths | – | –
3 | CCNC=C1N=C(c2ccccc2Cl)c2cc(Cl)ccc2N(C)C1=O [C, 3-(ethylamino-methylene)-7-chloro-5-(2'-chloro-phenyl)-1,3-dihydro-1-methyl-2H-1,4-benzodiazepin-2-one] | 2 mg/kg | 3 mg/kg | 11 mg/kg | 3 mg/kg | 200 mg/kg | 28 mg/kg | 36 mg/kg | – | no deaths | – | –
4 | CN1C(=O)C(=CN)N=C(c2ccccc2Cl)c2cc(Br)ccc21 [Compound E, 3-(amino-methylene)-7-bromo-5-(2'-chloro-phenyl)-1,3-dihydro-1-methyl-2H-1,4-benzodiazepin-2-one] | 7 mg/kg | 7 mg/kg | 5 mg/kg | 6 mg/kg | 18 mg/kg | 17 mg/kg | 26 mg/kg | – | – | – | –
5 | CN1C(=O)C(=CN2CCOCC2)N=C(c2ccccc2Cl)c2cc(Br)ccc21 [D, 7-bromo-5-(2'-chloro-phenyl)-1,3-dihydro-1-methyl-3-(morpholino-methylene)-2H-1,4-benzodiazepin-2-one] | 33 mg/kg | 26 mg/kg | 16 mg/kg | 13 mg/kg | 200 mg/kg | 31 mg/kg | 34 mg/kg | – | – | 4.4 mg/kg | 5.2 mg/kg
6 | NC=C1N=C(c2ccccc2Cl)c2cc(Br)ccc2NC1=O [F, 3-(amino-methylene)-7-bromo-5-(2'-chloro-phenyl)-1,3-dihydro-2H-1,4-benzodiazepin-2-one] | 0.5 mg/kg | 0.7 mg/kg | 0.7 mg/kg | 1.9 mg/kg | 70 mg/kg | 14.5 mg/kg | 16 mg/kg | – | – | 8.15 mg/kg | 3.76 mg/kg
7 | CCNC=C1N=C(c2ccccc2Cl)c2cc(Br)ccc2NC1=O [G, 3-(ethylamino-methylene)-7-bromo-5-(2'-chloro-phenyl)-1,3-dihydro-2H-1,4-benzodiazepin-2-one] | 2.4 mg/kg | 1.25 mg/kg | 2.1 mg/kg | 2.4 mg/kg | 37 mg/kg | 8.8 mg/kg | 22 mg/kg | – | – | 1.56 mg/kg | 2.45 mg/kg
8 | CN1C(=O)C(=CN)N=C(c2ccccc2Cl)c2cc(I)ccc21 [H, 3-(amino-methylene)-5-(2'-chloro-phenyl)-1,3-dihydro-7-iodo-1-methyl-2H-1,4-benzodiazepin-2-one] | 2.6 mg/kg | 1.5 mg/kg | 2.7 mg/kg | 1.6 mg/kg | 38 mg/kg | 30 mg/kg | 16 mg/kg | – | – | – | –
